Source: patent US10399948B2, “Negative allosteric modulators of metabotropic glutamate receptor 3” (Vanderbilt University, priority 2015, dated 2019)
Like-named read-outs stand apart in the source and are kept apart here.

Tests used:
Format in all cases: cell-based
rat mGlu5 = rat mGlu5 (Rattus norvegicus (Rat), UniProt P31424); assay: mGlu5 Ca2+ flux assay; settings: for activity at 30 µM: read-out: rat mGlu5 Glu max (%)
Procedure: (§1) HEK 293A cells stably expressing rat mGlu5 were plated in black-walled, clear-bottomed, poly-D-lysine coated 384-well plates in 20 μL of assay medium (DMEM containing 10% dialyzed FBS, 20 mM HEPES, 100 units/mL penicillin/streptomycin plus 250 ng/mL Fungizone, and 1 mM sodium pyruvate) at a density of 20K cells/well. The cells were grown overnight at 37° C. in the presence of 5% CO2. The next day, medium was removed and the cells incubated with 20 μL of […] Fluo-4, AM prepared as a 2.3 mM stock in DMSO and mixed in a 1:1 ratio with 10% (w/v) pluronic acid F-127 and diluted in assay buffer (Hank's balanced salt solution, 20 mM HEPES, and 2.5 mM probenecid) for 45 minutes at 37° C. Dye was removed, 20 μL of assay buffer was added, and the plate was incubated for 5 minutes at room temperature.
(§2) Ca^2+ flux was measured using the Functional Drug Screening System (FDSS7000, Hamamatsu, Japan). After establishment of a fluorescence baseline for about 3 seconds, the compounds of the present invention were added to the cells, and the response in cells was measured. 2.3 minutes later an EC20 concentration of the mGlu5 receptor agonist glutamate was added to the cells, and the response of the cells was measured for 1.9 minutes; an EC80 concentration of agonist was added and readings taken for an additional 1.7 minutes. All test compounds were dissolved and diluted to a concentration of 10 mM in 100% DMSO. Compounds were then serially diluted 1:3 in DMSO into 10 point concentration response curves, transferred to daughter plates, and further diluted into assay buffer to a 2× stock. Calcium fluorescence measures were recorded as fold over basal fluorescence; raw data was then normalized to the maximal response to glutamate.
(§3) The raw data file containing all time points was used as the data source in the analysis template. This was saved by the FDSS as a tab-delimited text file. Data were normalized using a static ratio function (F/F0) for each measurement of the total 360 values per well divided by each well's initial value. Data were then reduced to peak amplitudes (Max−Initial Min) using a time range that starts approximately 3 seconds prior to the glutamate EC20/EC80 addition and continues for approximately 90-120 seconds. This is sufficient time to capture the peak amplitude of the cellular calcium response. Individual amplitudes were expressed as % EMax by multiplying each amplitude by 100 and then dividing the product by the mean of the amplitudes derived from the glutamate ECMax-treated wells. EC50 values for test compounds were generated by fitting the normalized values versus the log of the test compound concentration (in mol/L) using a 4 parameter logistic equation where none of the parameters were fixed. Each of the three values collected at each concentration of test compound were weighted evenly.

rat mGlu3 = rat mGlu3 (Rattus norvegicus (Rat), UniProt P31422); assay: mGlu3 Ca2+ flux assay; settings: for IC50: NAM, glutamate EC80, >10,000 = decrease without plateau, >30,000 = no measurable activity; for remaining activity at 30 µM: response at 30 μM test compound as percentage of maximal response to glutamate, read-out: rat mGlu3 Glu max (%)
Procedure: Gα15/TREx cells stably expressing rat mGlu3 were plated in black-walled, clear-bottomed, poly-D-lysine coated 384-well plates in 20 μL of assay medium (DMEM containing 10% dialyzed FBS, 20 mM HEPES, 25 ng/mL tetracycline, 100 units/mL penicillin/streptomycin plus 250 ng/mL Fungizone, and 1 mM sodium pyruvate) at a density of 15K cells/well. The cells were grown overnight at 37° C. in the presence of 5% CO2. […] Dye was removed, 20 μL of assay buffer was added, and the plate was incubated for 10 minutes at room temperature.
as §2, with “mGlu3” for “mGlu5”
as §3, with “EC80” for “EC20/EC80”, “90” for “90-120”

rat mGlu2 = rat mGlu2 (Rattus norvegicus (Rat), UniProt P31421); assay: mGlu2 Ca2+ flux assay; settings: NAM, glutamate EC80; >30,000 = no measurable activity
Procedure: as §1, with “Gα15 HEK293” for “HEK 293A”, “mGlu2” for “mGlu5”, “HEPES,” for “HEPES, 100 units/mL penicillin/streptomycin plus 250 ng/mL Fungizone,”, “12K” for “20K”
as §2, with “mGlu2” for “mGlu5”
as §3, with “EC80” for “EC20/EC80”, “90” for “90-120”, “ECMax” for “EMax”, “IC50” for “EC50”

[1] = PAM, response at 30 μM test compound as percentage of maximal response to glutamate
[2] = PAM, glutamate EC20, >10,000 = no plateau, >30,000 = no measurable activity, read-out: rat mGlu5 EC50 or IC50

Chain of rat mGlu5 (P31424 21-1203): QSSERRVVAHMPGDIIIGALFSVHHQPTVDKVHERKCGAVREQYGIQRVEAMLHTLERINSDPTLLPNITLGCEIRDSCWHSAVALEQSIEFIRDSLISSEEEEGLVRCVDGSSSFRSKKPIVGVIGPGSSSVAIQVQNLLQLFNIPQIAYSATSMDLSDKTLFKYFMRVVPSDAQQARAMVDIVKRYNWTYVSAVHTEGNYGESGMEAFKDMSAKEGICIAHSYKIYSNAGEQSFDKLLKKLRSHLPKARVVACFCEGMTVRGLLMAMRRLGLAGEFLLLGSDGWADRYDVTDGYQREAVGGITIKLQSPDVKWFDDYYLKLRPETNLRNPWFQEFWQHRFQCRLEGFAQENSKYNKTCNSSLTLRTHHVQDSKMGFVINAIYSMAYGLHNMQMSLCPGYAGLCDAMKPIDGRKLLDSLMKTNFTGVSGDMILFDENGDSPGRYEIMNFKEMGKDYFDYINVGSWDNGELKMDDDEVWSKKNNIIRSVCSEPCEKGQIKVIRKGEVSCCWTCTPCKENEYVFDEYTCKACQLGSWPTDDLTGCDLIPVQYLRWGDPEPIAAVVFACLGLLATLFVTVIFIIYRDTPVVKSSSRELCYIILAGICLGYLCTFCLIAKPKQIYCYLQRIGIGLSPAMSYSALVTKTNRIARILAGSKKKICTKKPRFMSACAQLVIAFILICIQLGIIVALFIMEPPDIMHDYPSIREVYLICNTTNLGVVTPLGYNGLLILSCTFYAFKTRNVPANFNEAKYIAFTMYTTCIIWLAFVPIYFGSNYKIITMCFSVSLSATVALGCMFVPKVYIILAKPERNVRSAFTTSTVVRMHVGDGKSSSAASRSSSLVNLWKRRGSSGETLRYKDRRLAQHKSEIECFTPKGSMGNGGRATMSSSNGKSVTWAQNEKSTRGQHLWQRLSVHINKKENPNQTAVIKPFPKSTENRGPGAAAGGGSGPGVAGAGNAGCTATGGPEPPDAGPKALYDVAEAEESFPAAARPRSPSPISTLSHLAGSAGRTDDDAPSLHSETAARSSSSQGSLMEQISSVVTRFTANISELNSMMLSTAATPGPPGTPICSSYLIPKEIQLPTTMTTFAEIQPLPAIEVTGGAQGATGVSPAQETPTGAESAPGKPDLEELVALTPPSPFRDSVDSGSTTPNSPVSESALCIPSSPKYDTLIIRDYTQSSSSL
Chain of rat mGlu3 (P31422 23-879): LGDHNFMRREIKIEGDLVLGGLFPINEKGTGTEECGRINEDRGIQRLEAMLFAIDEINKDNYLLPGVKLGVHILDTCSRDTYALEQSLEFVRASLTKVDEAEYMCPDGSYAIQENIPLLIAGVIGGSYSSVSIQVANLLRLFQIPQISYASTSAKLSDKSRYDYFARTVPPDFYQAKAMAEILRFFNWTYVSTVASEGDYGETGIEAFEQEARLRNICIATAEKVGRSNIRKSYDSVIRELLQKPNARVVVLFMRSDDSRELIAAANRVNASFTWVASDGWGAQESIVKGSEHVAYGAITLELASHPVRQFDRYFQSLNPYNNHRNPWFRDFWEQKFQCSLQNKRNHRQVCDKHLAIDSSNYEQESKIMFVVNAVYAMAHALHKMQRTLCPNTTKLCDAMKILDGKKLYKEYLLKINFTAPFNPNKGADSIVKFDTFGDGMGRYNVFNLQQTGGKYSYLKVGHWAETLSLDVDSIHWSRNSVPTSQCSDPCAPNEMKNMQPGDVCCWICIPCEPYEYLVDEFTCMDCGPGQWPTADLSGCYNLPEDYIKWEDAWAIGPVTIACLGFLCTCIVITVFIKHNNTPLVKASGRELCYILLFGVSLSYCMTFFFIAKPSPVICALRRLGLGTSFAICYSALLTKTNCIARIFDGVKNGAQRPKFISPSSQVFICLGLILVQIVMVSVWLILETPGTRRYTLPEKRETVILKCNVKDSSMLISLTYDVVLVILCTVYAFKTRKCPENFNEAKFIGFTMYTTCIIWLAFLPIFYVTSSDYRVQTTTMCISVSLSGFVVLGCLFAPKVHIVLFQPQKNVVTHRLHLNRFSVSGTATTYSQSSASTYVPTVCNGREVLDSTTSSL
Chain of rat mGlu2 (P31421 19-872): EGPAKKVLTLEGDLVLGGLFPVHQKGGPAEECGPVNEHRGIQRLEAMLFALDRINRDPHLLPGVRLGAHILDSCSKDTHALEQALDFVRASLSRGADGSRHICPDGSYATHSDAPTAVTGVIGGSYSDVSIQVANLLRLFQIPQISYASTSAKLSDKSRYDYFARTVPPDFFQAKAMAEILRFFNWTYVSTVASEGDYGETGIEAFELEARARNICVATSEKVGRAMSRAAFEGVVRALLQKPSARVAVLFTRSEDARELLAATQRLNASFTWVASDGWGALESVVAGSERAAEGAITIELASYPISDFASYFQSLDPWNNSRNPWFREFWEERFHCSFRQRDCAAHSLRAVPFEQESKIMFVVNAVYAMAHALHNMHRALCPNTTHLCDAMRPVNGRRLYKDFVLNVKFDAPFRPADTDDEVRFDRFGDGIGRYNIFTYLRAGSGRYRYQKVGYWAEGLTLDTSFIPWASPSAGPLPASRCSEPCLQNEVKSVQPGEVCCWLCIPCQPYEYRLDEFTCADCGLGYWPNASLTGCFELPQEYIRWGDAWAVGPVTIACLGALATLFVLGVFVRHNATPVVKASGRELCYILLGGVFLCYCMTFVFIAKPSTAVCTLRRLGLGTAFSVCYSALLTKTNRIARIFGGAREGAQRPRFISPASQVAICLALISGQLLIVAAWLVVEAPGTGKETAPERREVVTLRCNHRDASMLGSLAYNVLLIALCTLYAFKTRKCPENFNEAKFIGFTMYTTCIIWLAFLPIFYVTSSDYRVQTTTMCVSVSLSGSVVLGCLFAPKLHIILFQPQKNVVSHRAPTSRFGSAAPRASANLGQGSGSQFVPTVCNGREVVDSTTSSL

O=c1cc(OCCOc2ccccc2)ccn1-c1ccc(F)cc1 [Compound 18, 1-(4-Fluorophenyl)-4-(2-phenoxyethoxy)pyridin-2(1H)-one]
EC50 (rat mGlu5): 567 nM
activity at 30 µM (rat mGlu5; [1]): 97.3%
IC50 (rat mGlu3): 725 ± 227 nM
remaining activity at 30 µM (rat mGlu3): 1.45 ± 0.14%
IC50 (rat mGlu2): > 30000 nM

O=c1cc(OCCOc2ccccc2)ccn1-c1cccc(F)c1 [Compound 19, 1-(3-fluorophenyl)-4-(2-phenoxyethoxy)pyridin-2(1H)-one]
EC50 (rat mGlu5): 1970 nM
activity at 30 µM (rat mGlu5; [1]): 88%
IC50 (rat mGlu3): 434 nM
remaining activity at 30 µM (rat mGlu3): 2.01%
IC50 (rat mGlu2): > 30000 nM

O=c1cc(OCCOc2ccccc2)ccn1-c1ccc(F)c(F)c1 [Compound 20, 1-(3,4-difluorophenyl)-4-(2-phenoxyethoxy)pyridin-2(1H)-one]
EC50 (rat mGlu5): 344 nM
activity at 30 µM (rat mGlu5; [1]): 91%
IC50 (rat mGlu3): 323 nM
remaining activity at 30 µM (rat mGlu3): 1.63%
IC50 (rat mGlu2): > 30000 nM

N#Cc1cccc(-n2ccc(OCCOc3ccccc3)cc2=O)c1 [Compound 22, 3-(2-oxo-4-(2-phenoxyethoxy)pyridin-1(2H)-yl)benzonitrile]
EC50 (rat mGlu5; [2]): 6020 nM
activity at 30 µM (rat mGlu5; [1]): 87%
IC50 (rat mGlu3): 559 nM
remaining activity at 30 µM (rat mGlu3): 1.16%
IC50 (rat mGlu2): > 30000 nM

N#Cc1cc(F)cc(-n2ccc(OCCOc3ccccc3)cc2=O)c1 [Compound 23, 3-fluoro-5-(2-oxo-4-(2-phenoxyethoxy)pyridin-1(2H)-yl)benzonitrile]
EC50 (rat mGlu5; [2]): 1310 nM
activity at 30 µM (rat mGlu5; [1]): 26.8%
IC50 (rat mGlu3): 522 nM
remaining activity at 30 µM (rat mGlu3): 3.44%
IC50 (rat mGlu2): > 30000 nM

O=c1cc(OCCOc2ccccc2)ncn1-c1ccc(F)cc1 [Compound 28, 3-(4-Fluorophenyl)-6-(2-phenoxyethoxy)pyrimidin-4(3H)-one]
EC50 (rat mGlu5; [2]): 1220 nM
activity at 30 µM (rat mGlu5; [1]): 89.8%
IC50 (rat mGlu3): 1270 nM
remaining activity at 30 µM (rat mGlu3): 10.1%
IC50 (rat mGlu2): > 30000 nM

O=c1cc(OCCOc2ccccc2F)ccn1-c1ccc(F)cc1 [Compound 30, 4-(2-(2-fluorophenoxy)ethoxy)-1-(4-fluorophenyl)pyridin-2(1H)-one]
EC50 (rat mGlu5; [2]): 1870 nM
activity at 30 µM (rat mGlu5; [1]): 92.8%
IC50 (rat mGlu3): 897 nM
remaining activity at 30 µM (rat mGlu3): 2.48%
IC50 (rat mGlu2): > 30000 nM

O=c1cc(OCCOc2cccc(F)c2)ccn1-c1ccc(F)cc1 [Compound 31, 4-(2-(3-fluorophenoxy)ethoxy)-1-(4-fluorophenyl)pyridin-2(1H)-one]
EC50 (rat mGlu5; [2]): 1460 nM
activity at 30 µM (rat mGlu5; [1]): 93.2%
IC50 (rat mGlu3): 514 nM
remaining activity at 30 µM (rat mGlu3): 1.95%
IC50 (rat mGlu2): > 30000 nM

O=c1cc(OCCOc2ccc(F)cc2)ccn1-c1ccc(F)cc1 [Compound 32, 4-(2-(4-fluorophenoxy)ethoxy)-1-(4-fluorophenyl)pyridin-2(1H)-one]
EC50 (rat mGlu5; [2]): 1500 nM
activity at 30 µM (rat mGlu5; [1]): 94.1%
IC50 (rat mGlu3): 1050 nM
remaining activity at 30 µM (rat mGlu3): -0.56%
IC50 (rat mGlu2): > 30000 nM

O=c1cc(OCCOc2cccc(F)c2F)ccn1-c1ccc(F)cc1 [Compound 33, 4-(2-(2,3-difluorophenoxy)ethoxy)-1-(4-fluorophenyl)pyridin-2(1H)-one]
EC50 (rat mGlu5; [2]): 6850 nM
activity at 30 µM (rat mGlu5; [1]): 94.1%
IC50 (rat mGlu3): 917 nM
remaining activity at 30 µM (rat mGlu3): -0.23%
IC50 (rat mGlu2): > 30000 nM

O=c1cc(OCCOc2ccc(Cl)cc2)ccn1-c1ccc(F)cc1 [Compound 39, 4-(2-(4-chlorophenoxy)ethoxy)-1-(4-fluorophenyl)pyridin-2(1H)-one]
EC50 (rat mGlu5; [2]): 10000 nM
activity at 30 µM (rat mGlu5; [1]): 81.1%
IC50 (rat mGlu3): 634 nM
remaining activity at 30 µM (rat mGlu3): 1.56%
IC50 (rat mGlu2): > 30000 nM

N#Cc1cccc(OCCOc2ccn(-c3ccc(F)cc3)c(=O)c2)c1 [Compound 41, 3-(2-((1-(4-fluorophenyl)-2-oxo-1,2-dihydropyridin-4-yl)oxy)ethoxy)benzonitrile]
IC50 (rat mGlu5; noted as weak NAM, glutamate EC80, read-out: rat mGlu5 EC50 or IC50): > 10000 nM
activity at 30 µM (rat mGlu5; noted as weak NAM, response at 30 μM test compound): 29.1%
IC50 (rat mGlu3): 715 nM
remaining activity at 30 µM (rat mGlu3): 0.13%
IC50 (rat mGlu2): > 30000 nM

O=c1cc(OCCOc2ccc(F)nc2)ccn1-c1ccc(F)cc1 [Compound 45, 1-(4-fluorophenyl)-4-(2-((6-fluoropyridin-3-yl)oxy)ethoxy)pyridin-2(1H)-one]
EC50 (rat mGlu5; [2]): > 10000 nM
activity at 30 µM (rat mGlu5; [1]): 35.5%
IC50 (rat mGlu3): 701 nM
remaining activity at 30 µM (rat mGlu3): 0.88%
IC50 (rat mGlu2): > 30000 nM

O=c1cc(OCCOc2cc(Cl)ccn2)ccn1-c1ccc(F)cc1 [Compound 49, 4-(2-((4-Chloropyridin-2-yl)oxy)ethoxy)-1-(4-fluorophenyl)pyridin-2(1H)-one]
EC50 (rat mGlu5; [2]): 8800 nM
activity at 30 µM (rat mGlu5; [1]): 82.3%
IC50 (rat mGlu3): 563 nM
remaining activity at 30 µM (rat mGlu3): 0.73%
IC50 (rat mGlu2): > 30000 nM
